Data as given in patent US20020155518A1, “Method of detecting compounds that control fungal diseases via effects on sporulation” (priority 2000, published 2002).

Legend:
Aspergillus nidulans [1] = experiment: Sporulation assay, paper disc diffusion on PDA seeded with spores; assay type: cell-based, Aspergillus nidulans strain 003 (ATCC 36321)
Aspergillus nidulans [2] = experiment: High-throughput screen for antisporulant activity, direct application with a replicator; assay type: cell-based; settings: direct application to the medium using a replicator; 2 days at 37° C.
Excerpt: For high-throughput screens, 245mm square bioassay dishes were poured and the medium containing the spore inoculum was allowed to solidify prior to application of test samples. Test samples, representing a broad spectrum of diverse chemical structures, were applied to the surface of the agar medium either by hand, using a replicator, or by robotic application. Each screen included a positive control treatment (e.g., 5 ∝g of one of the active benzophenones described elsewhere herein) that provided a positive response. Plates were incubated for 2 days at 37° C. Positives were initially identified by the presence of a discolored zone around the test sample. The positives were confirmed by retest followed by observation under a low power microscope (×20 magnification).
7000 compounds with diverse structures have been tested using the such a highthroughput screen. The compounds were tested by direct application to the medium using a replicator.

[3] = system: Apple Scab (Venturia inaequalis); experiment: Protectant foliar spray test against apple scab; assay type: in vivo; settings: apple seedlings, foliar spray before inoculation; vs untreated inoculated controls; further: key: '+++' =high control; '++' =moderate control; '+' =low control; '0'=no control
[4] = system: Wheat Powdery Mildew (Blumeria [Erysiphe] graminis f.sp. tritici); settings: in vivo; further: key: '+++' =high control; '++' =moderate control; '+' =low control; '0'=no control
[5] = system: Rice Blast (Magnaporthe grisea); assay type: in vivo; settings: foliar spray before inoculation, vs untreated inoculated controls
[6] = system: Leptosphaeria (Septoria) nodorum; experiment: Protectant foliar spray test against wheat L. nodorum blotch; assay type: in vivo; settings: wheat, foliar spray before inoculation; vs untreated inoculated controls; further: key: '+++' =high control; '++' =moderate control; '+' =low control; '0'=no control

SMILES	Active (Aspergillus nidulans [1])	Inactive (Aspergillus nidulans [1])	Moderately active (Aspergillus nidulans [1])	anti-sporulation activity (Aspergillus nidulans [2])	Level of Plant Disease Control, Apple Scab [3]	Level of Plant Disease Control, Wheat Powdery Mildew [4]	Level of Plant Disease Control, Rice Blast [5]	Level of Plant Disease Control, Wheat L. nodorum [6]
C[C@@H]([C@H](N)C(=O)N[C@H](C(=O)O)[C@H]1O[C@@H](n2ccc(=O)[nH]c2=O)[C@H](O)[C@@H]1O)[C@H](O)c1ccc(O)cn1 [Nikkomycin]	No	Yes	No					
CC(C)(C)CC(C)(C)c1ccc(C(=O)O)cc1 [A, 4-(1,1,3,3-tetramethylbutyl)benzoic acid]				tested positive				
CC1=C(C(=O)Nc2ccccc2)SCCO1 [Carboxin]	No	Yes	No					
COc1cc(C)c(C(=O)c2c(O)ccc(Cl)c2C)c(OC)c1OC [Compound N, (3-chloro-6-hydroxy-2-methylphenyl)(2,3,4-trimethoxy-6-methylphenyl)methanone]					0	+++	++	0
CCCOc1c(OC)cc(C)c(C(=O)c2c(OC)ccc(Cl)c2C)c1O [DD, (3-chloro-6-methoxy-2-methylphenyl)(2-hydroxy-4-methoxy-6-methyl-3-propoxyphenyl)methanone]					0	+++	0	0
